Where two headings read alike, the source gives them in different places.
Target: T1, Full length wild-type cereblon CRBN (Homo sapiens, UniProt Q96SW2)
T1 construct: Full length wild-type cereblon CRBN (80.0 nM, 10 μL) was incubated in assay buffer
Assay: Fluorescence polarization (FP) assay, cereblon binding
From the text: Compound activity was monitored in a fluorescence polarization (FP) homogeneous assay using 1-[5-({2-[2-(2-{[2-(2,6-dioxopiperidin-3-yl)-1,3-dioxo-2,3-dihydro-1H-isoindol-4-yl]oxy}acetamido)ethoxy]ethyl}carbamoyl)pentyl]-3,3-dimethyl-2-[(1E,3E)-5-[(2E)-1,3,3-trimethyl-5-sulfo-2,3-dihydro-1H-indol-2-ylidene]penta-1,3-dien-1-yl]-3H-indol-1-ium-5-sulfonate as a fluorescent probe. Unless otherwise stated, all reagents were purchased from Sigma Aldrich. […] Full length wild-type cereblon CRBN (80.0 nM, 10 μL) was incubated in assay buffer containing 20 mM HEPES (pH 8.0), […], 0.5 mM TCEP and 0.05% Tween 20 in the presence or absence of compound (300 nL). Inhibitors were stored as 10 mM DMSO stocks in an inert environment (low humidity, dark, low oxygen, room temperature) using the Storage Pod System. […] Following incubation at room temperature for 30 min, the assay was initiated by dispensing the probe to a final concentration of […] (2.5 nL of a 20 μM stock) using the Echo E5XX. […] The FP signal was subsequently normalized to the no-compound control (i.e., DMSO). Analysis and IC50 values were derived using Dotmatics (Dotmatics UK) software.

[1] = bounds stated in the text lists b2059-b2061, read-out: IC50 value
[2] = IC50 value, bounds stated in the text lists b2059-b2061
[3] = rFP IC50 [nM], cereblon binding, class code
[4] = cereblon binding, class code, read-out: rFP IC50

T1 sequence (Q96SW2 whole entry): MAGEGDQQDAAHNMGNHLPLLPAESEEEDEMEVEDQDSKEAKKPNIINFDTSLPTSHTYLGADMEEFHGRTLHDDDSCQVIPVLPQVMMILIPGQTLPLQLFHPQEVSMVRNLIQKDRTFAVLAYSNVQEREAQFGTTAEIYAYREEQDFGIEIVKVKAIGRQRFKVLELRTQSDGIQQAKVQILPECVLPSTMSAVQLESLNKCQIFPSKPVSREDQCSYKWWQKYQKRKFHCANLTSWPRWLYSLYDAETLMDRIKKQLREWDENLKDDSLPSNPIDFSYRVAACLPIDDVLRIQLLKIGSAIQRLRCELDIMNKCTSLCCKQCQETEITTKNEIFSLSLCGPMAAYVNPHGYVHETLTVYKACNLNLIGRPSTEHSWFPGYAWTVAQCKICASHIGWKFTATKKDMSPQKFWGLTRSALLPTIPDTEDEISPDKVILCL

SMILES	IC50 [1]	IC50 [4]	further results
O=C1CCC(N2Cc3ccc(COC(=O)Nc4cc(F)c(F)c(Cl)c4)cc3C2=O)C(=O)N1 (centres unmarked) [Compound 132]	–	–	IC50 [2]: < 1100 nM; IC50 [3]: 500 to 1100 nM
CC(C)(C)c1cc(NC(=O)OCc2ccc3c(c2)C(=O)N(C2CCC(=O)NC2=O)C3)ccn1 (centres unmarked) [Compound 114]	–	–	IC50 [2]: < 1100 nM
O=C1CCC(N2Cc3ccc(COC(=O)Nc4ccc(C5CCC5)nc4)cc3C2=O)C(=O)N1 (centres unmarked) [Compound 105]	< 1700 nM	500 to 1100 nM	–
Cc1ccccc1-c1ccc(NC(=O)OCc2ccc3c(c2)C(=O)N(C2CCC(=O)NC2=O)C3)cn1 (centres unmarked) [Compound 86]	< 1700 nM	500 to 1100 nM	–
Cc1cc(NC(=O)OCc2ccc3c(c2)C(=O)N(C2CCC(=O)NC2=O)C3)cc(F)c1C (centres unmarked) [Compound 117]	–	–	IC50 [2]: < 1100 nM; IC50 [3]: 500 to 1100 nM
O=C1CCC(N2Cc3ccc(COC(=O)Nc4ccc(N5CCCC(F)(F)C5)nc4)cc3C2=O)C(=O)N1 (centres unmarked) [Compound 73]	< 1100 nM	–	–
O=C1CCC(N2Cc3ccc(COC(=O)Nc4ccc5c(c4)CCCO5)cc3C2=O)C(=O)N1 (centres unmarked) [Compound 67]	< 1700 nM	500 to 1100 nM	–
O=C1CCC(N2Cc3ccc(COC(=O)Nc4cc(OC(F)(F)F)ccc4F)cc3C2=O)C(=O)N1 (centres unmarked) [Compound 145, (2-(2,6-dioxopiperidin-3-yl)-3-oxoisoindolin-5-yl)methyl(2-fluoro-5-(trifluoromethoxy)phenyl)carbamate]	–	–	IC50 (IC50 value): < 1100 nM; IC50 (rFP IC50 [nM]): 500 to 1100 nM
Cc1c(Cl)cc(NC(=O)OCc2ccc3c(c2)C(=O)N(C2CCC(=O)NC2=O)C3)cc1OC1CCN(C)C1 (centres unmarked) [Compound 68]	< 1700 nM	500 to 1100 nM	–
CN(C)C1CN(c2ccc(NC(=O)OCc3ccc4c(c3)C(=O)N(C3CCC(=O)NC3=O)C4)cn2)C1 (centres unmarked) [Compound 89]	< 1700 nM	500 to 1100 nM	–
O=C1CCC(N2Cc3ccc(COC(=O)Nc4ccc5c(c4)CC(F)(F)O5)cc3C2=O)C(=O)N1 (centres unmarked) [Compound 113]	–	–	IC50 [2]: < 1100 nM
CCc1nscc1NC(=O)OCc1ccc2c(c1)C(=O)N(C1CCC(=O)NC1=O)C2 (centres unmarked) [Compound 147]	< 1100 nM	500 to 1100 nM	–
O=C1CCC(N2Cc3ccc(COC(=O)NCc4ccccc4)cc3C2=O)C(=O)N1 (centres unmarked) [Compound 98]	< 1700 nM	500 to 1100 nM	–
O=C1CCC(N2Cc3ccc(COC(=O)Nc4ccc(C5CC5)cc4)cc3C2=O)C(=O)N1 (centres unmarked) [Compound 39]	< 1700 nM	500 to 1100 nM	–
CC1CCCN1c1ccc(NC(=O)OCc2ccc3c(c2)C(=O)N(C2CCC(=O)NC2=O)C3)cn1 (centres unmarked) [Compound 74]	< 1100 nM	–	–

Now from value to compound, other results behind:

IC50 [1]	IC50 [4]	SMILES	further results
< 1100 nM	–	C[C@@H]1CCCN1c1ccc(NC(=O)OCc2ccc3c(c2)C(=O)N(C2CCC(=O)NC2=O)C3)cn1 (stereo partly drawn) [Compound 157, (2-(2,6-dioxopiperidin-3-yl)-3-oxoisoindolin-5-yl)methyl (6-((R)-2-methylpyrrolidin-1-yl)pyridin-3-yl)carbamate]	–
< 1100 nM	–	CC1CCN(c2ccc(NC(=O)OCc3ccc4c(c3)C(=O)N(C3CCC(=O)NC3=O)C4)cn2)C1 (centres unmarked) [Compound 69]	–
< 1100 nM	–	O=C1CCC(N2Cc3ccc(COC(=O)N4CCC(Oc5ccccc5)C4)cc3C2=O)C(=O)N1 (centres unmarked) [Compound 30]	–
< 1700 nM	500 to 1100 nM	COc1cc(Cl)ccc1NC(=O)OCc1ccc2c(c1)C(=O)N(C1CCC(=O)NC1=O)C2 (centres unmarked) [Compound 38]	–
< 1700 nM	500 to 1100 nM	O=C1CCC(N2Cc3ccc(COC(=O)Nc4ccc5c(c4)OCC5)cc3C2=O)C(=O)N1 (centres unmarked) [Compound 18]	–
< 1700 nM	500 to 1100 nM	CC1(c2ccc(NC(=O)OCc3ccc4c(c3)C(=O)N(C3CCC(=O)NC3=O)C4)cc2)COC1 (centres unmarked) [Compound 62]	–
< 1700 nM	500 to 1100 nM	CC1(C)COc2cc(NC(=O)OCc3ccc4c(c3)C(=O)N(C3CCC(=O)NC3=O)C4)ccc21 (centres unmarked) [Compound 83]	–
< 1700 nM	1100 to 1700 nM	O=C1CCC(N2Cc3ccc(COC(=O)Nc4cccc(OC(F)F)c4)cc3C2=O)C(=O)N1 (centres unmarked) [Compound 5]	–
< 1700 nM	500 to 1100 nM	CC1COc2cc(NC(=O)OCc3ccc4c(c3)C(=O)N(C3CCC(=O)NC3=O)C4)ccc21 (centres unmarked) [Compound 103]	–
